The subject of this data set is Mythimna separata. The data set can be described thus: Efficacy test against Mythimna separata (treated artificial feed). Conditions: in vivo. How it is done:
Five parts of the compound of the present invention, 93.6 parts of dimethylformamide and 1.4 parts of a polyoxyethylene alkyl aryl ether were mixed together and dissolved to obtain an emulsion (1) containing 5% of the active constituent.
The mortality rate was calculated using the following equation. Mortality rate (%)=(number of dead pests/number of test pests)×100
First, 0.8 g of an artificial feed (Insecta LFS, manufactured by Nosan Corporation) and 1 μl of the emulsion (I) were mixed thoroughly, and 0.2 g of the resulting mixture was placed in each of the treatment areas of a plastic test container (volume: 1.4 ml) to complete preparation of a test feed.
Two second-instar larvae of Mythimna separata were inoculated into each treatment area, and the test container was sealed with a plastic lid. The sealed container was placed in a temperature-controlled room at 25° C., and the mortality rate and the amount of feed consumed were determined on the fifth day. The test was repeated. Further, a test performed under the same conditions, but with the exception of excluding the compound of the present invention from the emulsion (1), was used as a control.
For `COC(=O)c1cc(C(F)(F)F)ccc1NC(=O)c1ccc(C(F)(F)F)cc1NS(=O)(=O)C(F)(F)F` [a-58], the “mortality rate against Mythimna separata, or amount of feed consumed relative to control” value is listed as 100%, or the amount of feed consumed was 10% or less.
Next, `CCOc1cc(C(F)(F)F)ccc1NC(=O)c1ccc(C(F)(F)F)cc1NS(=O)(=O)C(F)(F)F` [a-59]: 100%, or the amount of feed consumed was 10% or less; `COC(=O)c1cc(Cl)ccc1NC(=O)c1ccc(C(F)(F)F)cc1NS(=O)(=O)C(F)(F)F` [a-60]: 100%, or the amount of feed consumed was 10% or less.
Consider `CCOC(=O)c1cc(Br)ccc1NC(=O)c1ccc(C(F)(F)F)cc1NS(=O)(=O)C(F)(F)F` [a-61], for which the “mortality rate against Mythimna separata, or amount of feed consumed relative to control” value was 100%, or the amount of feed consumed was 10% or less.
For the compound `COC(=O)c1cc(I)ccc1NC(=O)c1ccc(C(F)(F)F)cc1NS(=O)(=O)C(F)(F)F` [a-62], the “mortality rate against Mythimna separata, or amount of feed consumed relative to control” value is reported as 100%, or the amount of feed consumed was 10% or less.
As to `COC(=O)c1ccc(C(F)(F)F)cc1NC(=O)c1ccc(C(F)(F)F)cc1NS(=O)(=O)C(F)(F)F` [a-63], the “mortality rate against Mythimna separata, or amount of feed consumed relative to control” value is recorded as 100%, or the amount of feed consumed was 10% or less.
Regarding `O=C(Nc1ccc(C(F)(F)F)c(F)c1)c1ccc(C(F)(F)F)cc1NS(=O)(=O)C(F)(F)F` [a-64], the “mortality rate against Mythimna separata, or amount of feed consumed relative to control” value was 100%, or the amount of feed consumed was 10% or less.
For the compound `CCC(=O)c1cc(C(F)(F)F)ccc1NC(=O)c1ccc(C(F)(F)F)cc1NS(=O)(=O)C(F)(F)F` [a-66], the “mortality rate against Mythimna separata, or amount of feed consumed relative to control” value is 100%, or the amount of feed consumed was 10% or less.
For the compound `COC(=O)c1cc(C#N)ccc1NC(=O)c1ccc(C(F)(F)F)cc1NS(=O)(=O)C(F)(F)F` [a-67], the “mortality rate against Mythimna separata, or amount of feed consumed relative to control” value is given as 100%, or the amount of feed consumed was 10% or less.
Take `O=C(Nc1ccc(Br)cc1Cl)c1ccc(C(F)(F)F)cc1NS(=O)(=O)C(F)(F)F` [a-68]: the “mortality rate against Mythimna separata, or amount of feed consumed relative to control” value is 100%, or the amount of feed consumed was 10% or less.
For `O=C(Nc1ccc(Br)c(Cl)c1)c1ccc(C(F)(F)F)cc1NS(=O)(=O)C(F)(F)F` [a-69], the “mortality rate against Mythimna separata, or amount of feed consumed relative to control” value was 100%, or the amount of feed consumed was 10% or less.
As for `O=C(Nc1ccc(Cl)c(C(F)(F)F)c1)c1ccc(C(F)(F)F)cc1NS(=O)(=O)C(F)(F)F` [a-70], the “mortality rate against Mythimna separata, or amount of feed consumed relative to control” value was 100%, or the amount of feed consumed was 10% or less.
On to `COC(=O)c1cc(Cl)cc(Cl)c1NC(=O)c1ccc(C(F)(F)F)cc1NS(=O)(=O)C(F)(F)F` [a-71], for which the “mortality rate against Mythimna separata, or amount of feed consumed relative to control” value is given as 100%, or the amount of feed consumed was 10% or less.
With `COC(=O)c1cc(Br)ccc1NC(=O)c1ccc(Br)cc1NS(=O)(=O)C(F)(F)F` [a-73], the “mortality rate against Mythimna separata, or amount of feed consumed relative to control” value is listed as 100%, or the amount of feed consumed was 10% or less.
Take `COC(=O)c1cc([N+](=O)[O-])ccc1NC(=O)c1ccc(C(F)(F)F)cc1NS(=O)(=O)C(F)(F)F` [a-75]: the “mortality rate against Mythimna separata, or amount of feed consumed relative to control” value is given as 100%, or the amount of feed consumed was 10% or less.
With `O=C(Nc1ccc(Br)cc1-n1cccn1)c1ccc(C(F)(F)F)cc1NS(=O)(=O)C(F)(F)F` [a-76], the “mortality rate against Mythimna separata, or amount of feed consumed relative to control” value is recorded as 100%, or the amount of feed consumed was 10% or less.
As to `COC(=O)c1cc(F)c(F)cc1NC(=O)c1ccc(C(F)(F)F)cc1NS(=O)(=O)C(F)(F)F` [a-78], the “mortality rate against Mythimna separata, or amount of feed consumed relative to control” value is 100%, or the amount of feed consumed was 10% or less.
In the case of `COC(=O)c1cc(I)c(Cl)cc1NC(=O)c1ccc(C(F)(F)F)cc1NS(=O)(=O)C(F)(F)F` [a-79], the “mortality rate against Mythimna separata, or amount of feed consumed relative to control” value is on record as 100%, or the amount of feed consumed was 10% or less.
As to `O=C(Nc1cc(C(F)(F)F)ccc1-n1cccn1)c1ccc(C(F)(F)F)cc1NS(=O)(=O)C(F)(F)F` [a-81], the “mortality rate against Mythimna separata, or amount of feed consumed relative to control” value is reported as 100%, or the amount of feed consumed was 10% or less.
Next, `COC(=O)c1cc(C(F)(F)F)c(Cl)cc1NC(=O)c1ccc(C(F)(F)F)cc1NS(=O)(=O)C(F)(F)F` [a-82]: 100%, or the amount of feed consumed was 10% or less; `COC(=O)c1cc(Br)c(Cl)cc1NC(=O)c1ccc(C(F)(F)F)cc1NS(=O)(=O)C(F)(F)F` [a-83]: 100%, or the amount of feed consumed was 10% or less; `COC(=O)c1cc(Br)ccc1NC(=O)c1cc(C(F)(F)F)c(Cl)cc1NS(=O)(=O)C(F)(F)F` [a-84]: 100%, or the amount of feed consumed was 10% or less.
The figure for `COC(=O)c1cc(Br)c(F)cc1NC(=O)c1ccc(C(F)(F)F)cc1NS(=O)(=O)C(F)(F)F` [a-85] is 100%, or the amount of feed consumed was 10% or less; for `COC(=O)c1cc(C(F)(F)F)c(F)cc1NC(=O)c1ccc(C(F)(F)F)cc1NS(=O)(=O)C(F)(F)F` [a-86] it is 100%, or the amount of feed consumed was 10% or less.
With `COC(=O)c1cc(F)c(F)cc1NC(=O)c1cc(F)c(F)cc1NS(=O)(=O)C(F)(F)F` [a-87], the “mortality rate against Mythimna separata, or amount of feed consumed relative to control” value was 100%, or the amount of feed consumed was 10% or less.
As to `COC(=O)c1cc(F)c(F)cc1NC(=O)c1cc(Br)c(Cl)cc1NS(=O)(=O)C(F)(F)F` [a-88], the “mortality rate against Mythimna separata, or amount of feed consumed relative to control” value was 100%, or the amount of feed consumed was 10% or less.
`COC(=O)c1cc(Cl)c(F)cc1NC(=O)c1ccc(C(F)(F)F)cc1NS(=O)(=O)C(F)(F)F` [a-90]: the “mortality rate against Mythimna separata, or amount of feed consumed relative to control” value is recorded as 100%, or the amount of feed consumed was 10% or less.
Turning to `COC(=O)c1ccc(Cl)cc1NC(=O)c1ccc(C(F)(F)F)cc1NS(=O)(=O)C(F)(F)F` [a-92], the “mortality rate against Mythimna separata, or amount of feed consumed relative to control” value is on record as 100%, or the amount of feed consumed was 10% or less.
Turning to `COC(=O)c1cnc(Cl)cc1NC(=O)c1ccc(C(F)(F)F)cc1NS(=O)(=O)C(F)(F)F` [a-96], the “mortality rate against Mythimna separata, or amount of feed consumed relative to control” value is listed as 100%, or the amount of feed consumed was 10% or less.
For `COC(=O)c1cc(F)c(F)cc1NC(=O)c1cc(Cl)c(Cl)cc1NS(=O)(=O)C(F)(F)F` [a-97], the “mortality rate against Mythimna separata, or amount of feed consumed relative to control” value is 100%, or the amount of feed consumed was 10% or less.
Take `COC(=O)c1cc(F)c(F)cc1NC(=O)c1cc(F)c(C(F)(F)F)cc1NS(=O)(=O)C(F)(F)F` [a-98]: the “mortality rate against Mythimna separata, or amount of feed consumed relative to control” value is reported as 100%, or the amount of feed consumed was 10% or less.
The figure for `COC(=O)c1cc(F)c(F)cc1NC(=O)c1cc(C(F)(F)F)c(F)cc1NS(=O)(=O)C(F)(F)F` [a-99] is 100%, or the amount of feed consumed was 10% or less; for `COC(=O)c1cc(F)c(F)cc1NC(=O)c1ccc(-c2ccc(C(F)(F)F)nc2)cc1NS(=O)(=O)C(F)(F)F` [a-100] it is 100%, or the amount of feed consumed was 10% or less; for `O=C(Nc1ccc(C(F)(F)F)cc1[N+](=O)[O-])c1ccc(C(F)(F)F)cc1NS(=O)(=O)C(F)(F)F` [a-103] it is 100%, or the amount of feed consumed was 10% or less.
Regarding `COC(=O)c1cc(OC(F)(F)F)ccc1NC(=O)c1ccc(C(F)(F)F)cc1NS(=O)(=O)C(F)(F)F` [a-109], the “mortality rate against Mythimna separata, or amount of feed consumed relative to control” value is reported as 100%, or the amount of feed consumed was 10% or less.
With `COC(=O)c1cc(OC(F)(F)F)ccc1NC(=O)c1cc(F)c(F)cc1NS(=O)(=O)C(F)(F)F` [a-110], the “mortality rate against Mythimna separata, or amount of feed consumed relative to control” value was 100%, or the amount of feed consumed was 10% or less.
`COC(=O)c1cc(C(F)(F)F)ccc1NC(=O)c1cc(F)c(F)cc1NS(=O)(=O)C(F)(F)F` [a-111]: the “mortality rate against Mythimna separata, or amount of feed consumed relative to control” value was 100%, or the amount of feed consumed was 10% or less.
On to `COC(=O)c1cc(C(F)(F)F)ccc1NC(=O)c1cc(Br)c(Cl)cc1NS(=O)(=O)C(F)(F)F` [a-112], for which the “mortality rate against Mythimna separata, or amount of feed consumed relative to control” value is on record as 100%, or the amount of feed consumed was 10% or less.
Regarding `COC(=O)c1cc([N+](=O)[O-])ccc1NC(=O)c1cc(F)c(F)cc1NS(=O)(=O)C(F)(F)F` [a-113], the “mortality rate against Mythimna separata, or amount of feed consumed relative to control” value was 100%, or the amount of feed consumed was 10% or less.
Regarding `CON=Cc1cc(Cl)ccc1NC(=O)c1ccc(C(F)(F)F)cc1NS(=O)(=O)C(F)(F)F` [a-115], the “mortality rate against Mythimna separata, or amount of feed consumed relative to control” value is reported as 100%, or the amount of feed consumed was 10% or less.
In the case of `O=C(Nc1cc(F)c(F)cc1F)c1ccc(C(F)(F)F)cc1NS(=O)(=O)C(F)(F)F` [a-116], the “mortality rate against Mythimna separata, or amount of feed consumed relative to control” value is reported as 100%, or the amount of feed consumed was 10% or less.
For the compound `O=C(Nc1ccc(C(F)(F)F)cc1)c1ccc(-c2ccc(C(F)(F)F)nc2)cc1NS(=O)(=O)C(F)(F)F` [a-118], the “mortality rate against Mythimna separata, or amount of feed consumed relative to control” value was 100%, or the amount of feed consumed was 10% or less.
Next, `O=C(Nc1ccc(C(F)(F)F)c(F)c1)c1ccc(-c2ccc(C(F)(F)F)nc2)cc1NS(=O)(=O)C(F)(F)F` [a-119]: 100%, or the amount of feed consumed was 10% or less.

For the origin of these results see patent publication US10793520B2, “Sulfonylaminobenzamide compound and pest control agent” (Nippon Soda Co., Ltd., priority 2016, dated 2020).
